Test results from PubChem BioAssay (NCI).
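Exposure lasted 48 hours, with cells grown in 96-well plates and compounds tested at five concentrations. At the TGI there is no net growth.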

Experiments:
Experiment in all cases: NCI tumour cell line growth inhibition, 48 h
[1] = test system: MDA-N
[2] = test system: LOX IMVI melanoma
[3] = test system: COLO 205 colon
[4] = test system: K-562 leukemia
[5] = test system: M19-MEL melanoma
[6] = test system: BT-549 breast
[7] = test system: UACC-257 melanoma
[8] = test system: OVCAR-5 ovarian
[9] = test system: HOP-62 NSCLC
[10] = test system: LXFL 529 NSCLC
[11] = test system: NCI-H522 lung
[12] = test system: UO-31 renal
[13] = test system: U251 CNS
[14] = test system: DMS 273 small cell lung
[15] = test system: SK-MEL-28 melanoma
[16] = test system: OVCAR-4 ovarian
[17] = test system: DU-145 prostate
[18] = test system: HCC-2998 colon
[19] = test system: MDA-MB-435
[20] = test system: UACC-62 melanoma
[21] = test system: A498 renal
[22] = test system: XF 498 CNS
[23] = test system: NCI-H226 lung
[24] = test system: ACHN renal
[25] = test system: RXF 393 renal
[26] = test system: HOP-18 NSCLC
[27] = test system: T-47D breast
[28] = test system: CCRF-CEM leukemia
[29] = test system: MOLT-4 leukemia
[30] = test system: SW-620 colon
[31] = test system: MALME-3M melanoma
[32] = test system: NCI-H460 lung
[33] = test system: IGROV1 ovarian
[34] = test system: NCI/ADR-RES ovarian
[35] = test system: SNB-78 CNS
[36] = test system: TK-10 renal
[37] = test system: SNB-75 CNS
[38] = test system: MCF7 breast
[39] = test system: KM12 colon
[40] = test system: HCT-116 colon
[41] = test system: NCI-H23 lung
[42] = test system: 786-0 renal
[43] = test system: OVCAR-3 ovarian
[44] = test system: DLD-1 colon
[45] = test system: M14 melanoma
[46] = test system: A549 NSCLC
[47] = test system: SF-539 CNS
[48] = test system: SK-OV-3 ovarian
[49] = test system: PC-3 prostate
[50] = test system: SK-MEL-5 melanoma
[51] = test system: MDA-MB-231 breast
[52] = test system: DMS 114 small cell lung
[53] = test system: HT29 colon
[54] = test system: SF-268 CNS
[55] = test system: RPMI-8226 leukemia
[56] = test system: SN12C renal
[57] = test system: OVCAR-8 ovarian
[58] = test system: SNB-19 CNS
[59] = test system: SF-295 CNS
[60] = test system: HCT-15 colon
[61] = test system: HL-60(TB) leukemia
[62] = test system: RXF-631 renal
[63] = test system: SR leukemia
[64] = test system: EKVX NSCLC
[65] = test system: SK-MEL-2 melanoma
[66] = test system: HOP-92 NSCLC

Compound `O=c1cc(-c2cccc(O)c2)[nH]c2cc3c(cc12)OCO3` has a TGI [1] of 1070 nM, a TGI [2] greater than 100 µM and a TGI [3] of 9.32 µM. The TGI [4] was greater than 100 µM, the TGI [5] was 95.9 µM and the TGI [6] was greater than 100 µM. It also gave a TGI [7] greater than 100 µM, a TGI [8] greater than 100 µM and a TGI [9] of 14.7 µM. It also gave a TGI [10] greater than 100 µM, a TGI [11] of 951 nM and a TGI [12] greater than 100 µM. It also gave a TGI [13] greater than 36.5 µM, a TGI [14] of 4.23 µM and a TGI [15] of 83.5 µM. For the same compound, the TGI [16] was greater than 100 µM, the TGI [17] was 883 nM and the TGI [18] was greater than 100 µM. The TGI [19] was 997 nM, the TGI [20] was 8.67 µM and the TGI [21] was greater than 100 µM. The TGI [22] was greater than 100 µM, the TGI [23] was 23.8 µM and the TGI [24] was greater than 100 µM. It also gave a TGI [25] greater than 100 µM, a TGI [26] greater than 100 µM and a TGI [27] greater than 100 µM. For the same compound, the TGI [28] was greater than 100 µM, the TGI [29] was greater than 100 µM and the TGI [30] was greater than 100 µM. The TGI [31] was greater than 100 µM, the TGI [32] was greater than 100 µM and the TGI [33] was greater than 100 µM. The TGI [34] was 4 µM, the TGI [35] was 54.2 µM and the TGI [36] was greater than 100 µM. For the same compound, the TGI [37] was 20.5 µM, the TGI [38] was greater than 100 µM and the TGI [39] was greater than 100 µM. The TGI [40] was greater than 100 µM, the TGI [41] was greater than 100 µM and the TGI [42] was greater than 69.9 µM. For the same compound, the TGI [43] was 386 nM, the TGI [44] was greater than 100 µM and the TGI [45] was greater than 52.5 µM. It also gave a TGI [46] greater than 100 µM, a TGI [47] of 4.39 µM and a TGI [48] of 8.27 µM. For the same compound, the TGI [49] was greater than 100 µM, the TGI [50] was 5.01 µM and the TGI [51] was 22.1 µM. The TGI [52] was 5.68 µM, the TGI [53] was greater than 100 µM and the TGI [54] was greater than 69.6 µM. The TGI [55] was greater than 100 µM, the TGI [56] was greater than 78 µM and the TGI [57] was greater than 29.7 µM. The TGI [58] was greater than 49.6 µM, the TGI [59] was greater than 100 µM and the TGI [60] was greater than 100 µM. It also gave a TGI [61] greater than 19.9 µM.

`FC(F)(F)c1ccc(C2SCc3nc4ccccc4n32)cc1` (centres undefined) showed a TGI [3] greater than 100 µM, a TGI [4] greater than 100 µM and a TGI [5] greater than 100 µM. It also gave a TGI [7] greater than 100 µM, a TGI [8] greater than 100 µM and a TGI [10] greater than 100 µM. It also gave a TGI [62] greater than 100 µM, a TGI [12] greater than 100 µM and a TGI [13] greater than 100 µM. For the same compound, the TGI [14] was greater than 100 µM, the TGI [63] was greater than 100 µM and the TGI [15] was greater than 100 µM. It also gave a TGI [64] greater than 100 µM, a TGI [18] greater than 100 µM and a TGI [20] greater than 100 µM. The TGI [21] was greater than 100 µM, the TGI [23] was greater than 100 µM and the TGI [24] was greater than 100 µM. It also gave a TGI [25] greater than 100 µM, a TGI [26] greater than 100 µM and a TGI [65] greater than 100 µM. The TGI [28] was greater than 100 µM, the TGI [29] was greater than 100 µM and the TGI [30] was greater than 100 µM. The TGI [31] was greater than 100 µM, the TGI [33] was greater than 100 µM and the TGI [35] was greater than 100 µM. The TGI [66] was 48.8 µM, the TGI [36] was greater than 100 µM and the TGI [37] was greater than 100 µM. For the same compound, the TGI [39] was greater than 100 µM, the TGI [40] was greater than 100 µM and the TGI [41] was greater than 100 µM. It also gave a TGI [42] greater than 100 µM, a TGI [44] greater than 100 µM and a TGI [46] greater than 100 µM. It also gave a TGI [47] greater than 100 µM, a TGI [48] greater than 100 µM and a TGI [50] greater than 100 µM. It also gave a TGI [52] greater than 100 µM, a TGI [53] greater than 100 µM and a TGI [54] greater than 100 µM. For the same compound, the TGI [55] was greater than 100 µM, the TGI [56] was greater than 100 µM and the TGI [57] was greater than 100 µM. It also gave a TGI [58] greater than 100 µM, a TGI [59] greater than 100 µM and a TGI [61] of 96.2 µM.
